In ChEMBL document CHEMBL1125440, “Synthesis and antiviral activity of acyclic nucleosides with a 3(S),5-dihydroxypentyl or 4(R)-methoxy-3(S),5-dihydroxypentyl side chain” (1992):
≈ marks a conversion by molar mass, not a printed value.

Legend:
[1] = system: E6SM; test: Minimum inhibitory concentration (MIC) required to reduce VMW 1837 strain of TK-HSV-1 induced cytopathogenicity by 50% in E6SM cells; assay type: functional; settings: Homo sapiens
[2] = system: E6SM; test: Minimum inhibitory concentration (MIC) required to reduce Lyons strain of HSV-2 induced cytopathogenicity by 50% in E6SM cells; assay type: functional; settings: Homo sapiens
[3] = system: E6SM; test: Minimum inhibitory concentration (MIC) required to reduce B2006 strain of TK-HSV-1 induced cytopathogenicity by 50% in E6SM cells; assay type: functional; settings: Homo sapiens
[4] = system: E6SM; test: (§1) Compounds was evaluated for its inhibitory effect on cytopathogenicity of vesicular stomatitis virus (VSV) in E6SM cells; assay type: functional; settings: Homo sapiens
[5] = system: E6SM; test: Minimum cytotoxic concentration (MCC) required to cause a microscopically detectable alteration of normal cell morphology against E6SM cells; assay type: functional; settings: Homo sapiens
[6] = system: E6SM; test: Minimum inhibitory concentration (MIC) required to reduce McIntyre strain of HSV-1 induced cytopathogenicity by 50% in E6SM cells; assay type: functional; settings: Homo sapiens
[7] = system: E6SM; test: Minimum inhibitory concentration (MIC) required to reduce 196 strain of HSV-2 induced cytopathogenicity by 50% in E6SM cells; assay type: functional; settings: Homo sapiens
[8] = system: E6SM; test: Minimum inhibitory concentration (MIC) required to reduce KOS strain of HSV-1 induced cytopathogenicity by 50% in E6SM cells; assay type: functional; settings: Homo sapiens
[9] = system: E6SM; test: Minimum inhibitory concentration (MIC) required to reduce G strain of HSV-2 induced cytopathogenicity by 50% in E6SM cells; assay type: functional; settings: Homo sapiens
[10] = system: E6SM; test: (§2) Compounds was evaluated for its inhibitory effect on cytopathogenicity of vaccinia virus (VV) in E6SM cells; assay type: functional; settings: Homo sapiens
[11] = system: E6SM; test: Minimum inhibitory concentration (MIC) required to reduce F strain of HSV-1 induced cytopathogenicity by 50% in E6SM cells; assay type: functional; settings: Homo sapiens
[12] = system: E6SM; test: as §1; assay type: functional, Homo sapiens
[13] = system: E6SM; test: as §2; assay type: functional, Homo sapiens

Compound | MIC [1] [µg/mL] | MIC [2] [µg/mL] | MIC [3] [µg/mL] | MIC [4] [µg/mL] | MCC [5] [µg/mL] | MIC [6] [µg/mL] | MIC [7] [µg/mL] | MIC [8] [µg/mL] | MIC [9] [µg/mL] | MIC [10] [µg/mL] | MIC [11] [µg/mL] | VSV [12] | VV [13]
Nc1ncnc2c1ncn2C[C@H](O)CO [(S)-DHPA] | > 400 | 250 (≈ 1190 µM) | 300 (≈ 1430 µM) | 70 (≈ 335 µM) | > 400 | 70 (≈ 335 µM) | 300 (≈ 1430 µM) | 300 (≈ 1430 µM) | 300 (≈ 1430 µM) | 70 (≈ 335 µM) | 70 (≈ 335 µM) |  | 
Nc1nc2c(ncn2COCCO)c(=O)[nH]1 [ACYCLOVIR] | 10 (≈ 44.4 µM) | 0.02 (≈ 0.0888 µM) | 70 (≈ 311 µM) |  | > 400 | 0.02 (≈ 0.0888 µM) | 0.015 (≈ 0.0666 µM) | 0.07 (≈ 0.311 µM) | 0.04 (≈ 0.178 µM) |  | 0.04 (≈ 0.178 µM) | >400 | >400
Nc1nc(O)c2ncn(CC[C@H](O)CCO)c2n1 | > 400 | 5 (≈ 19.7 µM) | > 400 | > 400 | > 400 | 0.6 (≈ 2.37 µM) | 20 (≈ 79 µM) | 0.4 (≈ 1.58 µM) | 4 (≈ 15.8 µM) | > 400 | 0.4 (≈ 1.58 µM) |  | 
